Data set [1] can be described thus: RT-S9 substrate depletion assay, individual compounds, with IVIVE. The settings on record: for CLint,S9 / CLint,in vivo set to LOD/3 for extrapolation: s9. The method, then: The in vitro intrinsic clearance by the S9 fraction of rainbow trout liver was measured for the same 11 anionic surfactants used in the BCF experiment as separate compounds. […] An established RT-S9 substrate depletion assay was employed,[25]−[27] predating the currently available OECD guideline 319B.[28] A single batch of the characterized liver homogenate material was prepared at the US EPA lab in Duluth and shipped on dry ice to the testing facilities at the University of Amsterdam. The test was conducted using the same method applied for a series of cationic surfactants in Droge et al.[29] and is summarized together with the in vitro–in vivo extrapolation in Text S4.
(§1) Text S4: Trout liver S9 parent depletion assay details and IVIVE
(§2) Liver tissue was separately pooled from the same five rainbow trout (three males/two females, ~300 g, liver weight ~3 g) used also for the RT-S9 study on a series of cationic surfactants (Droge et al., 2021b). The liver sample was homogenized in an appropriate buffer and then centrifuged to yield a 13,000 x g supernatant (the ‘S9 fraction’, lacking only mitochondrial fractions). No further refinement towards microsomal fractions was made to remove cytosolic and lysosomal components.
(§3) Upon arrival at the University of Amsterdam the liver
(§4) S9 material was stored in a -80 °C freezer until use.
(§5) Individual chemicals were first dissolved in methanol and then further diluted to 20% methanol in 100 mM phosphate buffer to make a ~20 µM stock solution, which was then spiked as 10 µL in 190 µL of active S9 mixture. The active S9 mixture consisted of 100 mM potassium phosphate-buffered saline (PPBS) adjusted to pH 7.8, 2 mM β-NADPH, 2 mM UDPGA, 0.1 mM PAPS, 5 mM GSH, 10 μg/mL alamethicin (in methanol carrier; 0.1% v/v final concentration), and 2 mg/mL S9 protein. The substrate depletion assays were performed using the multiple vial method described in OECD TG 319B, employing two or three separately spiked series.
(§6) Reactions were performed at 11 °C in a temperature-controlled water bath (B. Braun Frigomix-R) that was placed on a 2 cm travel path shaker (Gerhardt LS 10) set at 45 rpm. As a positive […]
(§7) alkylsulfonates, no additional assays with inactivated RT-S9 were performed.
(§8) Reactions were quenched with 600 µL ice-cold acetonitrile. After 10 s vortexing and 5 min centrifugation (Hermle Z300, 2500 rpm), 100 µL clear supernatant was transferred into 300 µL glass inserts placed in new autosampler vials, and mixed with 100 µL pure water. Concentrations were measured using a Prominence UFLC-XR system (Shimadzu) coupled to a tandem mass spectrometer (QTRAP 4000, Applied Biosystems) with a Turbo Ion spray source operated at 400 ◦C. For chromatographic separations, a 100 x 2.1mm x 2.7 µm Supelco Ascentis Express column was used (40 °C), with eluent A: pure water with 2 mM ammonium acetate, and eluent […]
(§9) prepared in 50% acetonitrile/water, calibration curves used covered at least four points in a log-linear range. The lowest external standard to fit the log-linear calibration curve served as limit of quantification, requiring a peak of at least 10x the average noise.
(§10) Each vial was treated as an independent vial with recorded exposure time. Log-transformed concentration data of the parent compound were plotted against exposure time (min) and analysed using Graphpad PRISM 8. […]
(§11) the slope (min-1) was multiplied by -2.3 and by 60 (min h-1) to obtain a first order depletion rate […]
(§12) Extrapolation of kdep to whole body rate biotransformation rate constant (kB-S9) The basic approach to extrapolate first order depletion rate constants (k dep) to whole body

Data set [2] can be described thus: RT-S9 substrate depletion assay, mixture of 9 anionic surfactants (AnionMixture). Particulars: for Slope of depletion curve (log concentration vs time): tested in a mixture. The method, then: An established RT-S9 substrate depletion assay was employed,[25]−[27] predating the currently available OECD guideline 319B.[28] A single batch of the characterized liver homogenate material was prepared at the US EPA lab in Duluth and shipped on dry ice to the testing facilities at the University of Amsterdam. The test was conducted using the same method applied for a series of cationic surfactants in Droge et al.[29] and is summarized together with the in vitro–in vivo extrapolation in Text S4.
as §1, §2, §3, §4, §5, §6, §7, §8, §9, §10, §11, §12

Where [3] appears, read: both, rainbow trout, 1 µM, pH 7.8.

These results are taken from PMC9118553, “In Vivo Bioconcentration of 10 Anionic Surfactants in Rainbow Trout Explained by In Vitro Data on Partitioning and S9 Clearance” (Environmental Science & Technology, 2022).

Read-outs that look alike come from different tables or passages of the source.

Take `CCCCCCCCCCc1ccc(S(=O)(=O)O)cc1` [C10-1-LAS, 1-n-(p-sulfophenyl)decane]: in data set [1], the “kB-S9, biotransformation rate constant from in vitro RT-S9 assay” value (from here on “kB-S9, biotransformation rate constant”) is recorded as 0.041 (0.037–0.045) h^–1 and the “CLint,S9” value worked out at 0.61 mL h-1 mg protein-1. In data set [2], the “clearance rate lower in AnionMixture compared to single compound assay (factor)” value is recorded as “twofold” and the “Slope of depletion curve (log concentration vs time)” value (from here on “Slope … (log concentration vs time)”) is -0.0050 min-1.

Regarding `CCCCCCCCCCS(=O)(=O)O` [C10SO3, decylsulfonate], in data set [1], the “kB-S9, biotransformation rate constant” value was 0.366 (0.33–0.40) h^–1 and the “CLint,S9” value was determined as 4.54 mL h-1 mg protein-1. Further, in data set [2], the “clearance rate lower in AnionMixture compared to single compound assay (factor)” value is 6 and the “Slope … (log concentration vs time)” value is reported as -0.0111 min-1.

With `CCCCCCCCCCCS(=O)(=O)O` [C11SO3, undecylsulfonate], in data set [1], the “kB-S9, biotransformation rate constant” value is given as 0.225 (0.21–0.24) h^–1 and the “CLint,S9” value is on record as 3.05 mL h-1 mg protein-1.

As for `CCCCCCCCCCCOS(=O)(=O)O` [C11SO4, undecylsulfate], in data set [1], the “kB-S9, biotransformation rate constant” value was 0.151 (0.136–0.166) h^–1 and the “CLint,S9” value was 2.81 mL h-1 mg protein-1. In data set [2], the “clearance rate lower in AnionMixture compared to single compound assay (factor)” value was “twofold” and the “Slope … (log concentration vs time)” value is -0.0202 min-1.

As for `CCCCCCCCCCCCOCCOCCOCCOCCOS(=O)(=O)O` [C12-EO4-SO4, dodecyltetraethoxysulfate], in data set [1], the “kB-S9, biotransformation rate constant” value is reported as 0.084 (0.059–0.109) h^–1 and the “CLint,S9” value was determined as 1.30 mL h-1 mg protein-1. Moreover, the “Slope … (log concentration vs time)” value in data set [2] is -0.0216 min-1.

With `CCCCCCCCCCCCCS(=O)(=O)O` [C13SO3, tridecylsulfonate], in data set [1], the “kB-S9, biotransformation rate constant” value is given as 0.032 (0.028–0.036) h^–1 and the “CLint,S9” value was determined as 0.45 mL h-1 mg protein-1.

On to `CCCCCCCCCCCCCOS(=O)(=O)O` [C13SO4, tridecylsulfate], for which, in data set [1], the “kB-S9, biotransformation rate constant” value is recorded as 0.028 (0.022–0.034) h^–1 and the “CLint,S9” value was 0.40 mL h-1 mg protein-1. Besides, in data set [2], the “Slope … (log concentration vs time)” value is reported as -0.0042 min-1.

`CCCCCCCCCCCCCCS(=O)(=O)O` [C14SO3, tetradecylsulfonate]: in data set [1], the “factor by which kB-S9 was less than kB-BCF” value was 11; the “kB-S9, biotransformation rate constant” value is 0.002 ^h h^–1; the “reaction rate set to LOD/3 for extrapolation” value is 0.05 h⁻¹; the “CLint,S9” value was “n.s”. In addition, the “CLint,in vivo set to LOD/3 for extrapolation” value in data set [1] is given as ~ 3.5 mL h-1 g liver-1. Moreover, the “Slope … (log concentration vs time)” value in data set [2] was -0.0010 min-1.

Take `CCCCCCCCCCCCCCCCS(=O)(=O)O` [C16SO3, hexadecylsulfonate]: in data set [1], the “kB-S9, biotransformation rate constant” value is 0.002 ^h h^–1; the “reaction rate set to LOD/3 for extrapolation” value was 0.05 h⁻¹; the “CLint,S9” value is “n.s”; the “CLint,in vivo set to LOD/3 for extrapolation” value is listed as ~ 3.5 mL h-1 g liver-1. In addition, in data set [2], the “Slope … (log concentration vs time)” value is given as -0.0008 min-1.

Take `CCCCC(CC)COC(=O)CC(C(=O)OCC(CC)CCCC)S(=O)(=O)O` (centres unmarked) [DOSS, bis(2-ethylhexyl)sulfosuccinate]: in data set [1] (setting [3]), the “factor by which kB-S9 was less than kB-BCF” value amounted to 6 and the “kB-S9, biotransformation rate constant” value is 0.011 (0.009–0.013) h^–1. Moreover, the “CLint,S9” value in data set [1] turned out to be 0.14 mL h-1 mg protein-1. Besides, the “Slope … (log concentration vs time)” value in data set [1] (tested individually, 2 mg/mL S9 protein, 11 °C) is on record as -0.0021 min-1. Further, the “Slope … (log concentration vs time)” value in data set [2] is -0.0021 min-1.
